This note sets out measurements from patent US8961959B2, “Glucosylceramide synthase inhibitors and therapeutic methods using the same” (The Regents of the University of Michigan, priority 2011, dated 2015).

The structures appear in SMILES notation. “Also recorded” adds a separate entry of the source. Read-outs that look alike come from different tables or passages of the source.

Assay [1] has as its system C57BL/6 mice. The assay is described as follows: Organ GlcCer content in C57BL/6 mice after short term i.p. dosing. Type of assay: in vivo, mouse. The settings on record: for change in brain GlcCer levels: 10 mg/kg/day i.p. for 3 days, 12 h after last injection; for fall in brain GlcCer levels: 30 mg/kg q 12 h for 3 days i.p.; for brain GlcCer content, short term dosing: i.p. for 3 days, in words; for liver and kidney GlcCer levels: i.p. 3 days. The procedure:
C57BL/6 mice were maintained on regular chow in specific-pathogen-free facilities. All animal studies were performed under the review of the University of Michigan Committee on the Use and Care of Animals and conformed to the National Institutes of Health Guide for the Care and Use of Laboratory Animals. Injection solutions were prepared from inhibitor-ethanol stock solution (100 mM) A portion of the stock solution was evaporated under a stream of N2 gas. Dried eliglustat tartrate (compound 3a) was directly dissolved into 1× phosphate buffered saline. […] The acidic solution was neutralized by mixing 100 μL of 10× phosphate buffered saline with 636.3 μL of water to bring the total volume to one ml. Inhibitor solutions were sterilized by passage through a […]. Inhibitor recovery after filtration was confirmed by UV spectrometry and exceeded 99%. For control injections, phosphate buffered saline containing the same amount of HCl was used. Inhibitors were given to 6 to 8 week old female or male C57BL/6 mice by intraperitoneal injection volume at 1% of body weight.
Lipid extractions of liver, kidney, and brain were performed as previously described (7). Briefly, frozen liver (about 0.5 g), two kidneys (about 0.3 g) and whole brain (about 0.4 g) were individually homogenized in sucrose buffer (250 mM sucrose, pH 7.4, 10 mM HEPES and 1 mM EDTA), at 0.2 g tissue/1 mL of sucrose buffer, with a Tri-R homogenizer. Each 0.8 mL of homogenate was mixed with 2 mL of methanol and 1 mL of chloroform, bath sonicated for 1 min and incubated at room temperature for 1 h. Tissue debris were removed by centrifugation at 2,400×gravity for 30 min. The pellets were re-extracted by mixing with 1 mL of methanol, 0.5 mL of chloroform and 0.4 mL of 0.9% NaCl (chloroform/methanol/0.9% NaCl, 1:2:0.8), incubated at room temperature for 1 h and centrifuged at 2,400×gravity for another 30 min. Two extracts were combined and mixed with 4.5 mL of chloroform and 1.2 mL of 0.9% NaCl (chloroform/methanol/0.9% NaCl, 2:1:0.8). After centrifugation at 800×gravity for 5 min, lower layer was washed with 3 mL of methanol and 2.4 mL of 0.9% NaCl. Second washing was carried with 3 mL of methanol, 2 mL of water and 0.4 mL of 0.9% NaCl followed by a 5 min centrifugation at 800×gravity. The resultant lower phase was collected and dried under a stream of N2 gas.
The analysis of neutral glycosphingolipids from mouse liver, kidney, and brain was processed after alkaline methanolysis. […] lipids were incubated with 2 mL of chloroform and 1 ml of 0.21N NaOH in methanol for 2 h (kidney) or 7.5 h (liver and brain) at RT. The lipid extract was normalized to 0.5 μmol of total phospholipid phosphate (liver and kidney) or 2 μmol of total phospholipid phosphate (brain) for high performance thin layer chromatography analysis. After alkaline methanolysis, the brain lipids were passed through a silica gel column (7). Borate-impregnated thin layer chromatography plates were developed in a two solvent system. Plates were first developed in chloroform/methanol (98:2, v/v). The plates loaded with kidney and liver lipids were then developed in chloroform/methanol/water (64:24:4, v/v/v), and brain lipids were further separated in chloroform/methanol/water (60:30:6, v/v/v). GlcCer levels were quantified by comparison to known standards.

Assay [2] concerns MDR1-MDCKII cells. Kind of assay: GCS inhibition (GlcCer production) in MDCKII cells stably expressing human MDR1. Type of assay: cell-based, canine. The settings on record: for IC50: Canis lupus familiaris. The procedure:
Parental (WT-)MDCKII cells and MDCKII cells retrovirally transduced with human MDR-1 cDNA were obtained from the Netherlands Cancer Institute. Both cell lines were routinely maintained in medium consisting of Opti-MEM/F 12 (1:1), 5% FBS, 100 U/mL of penicillin, 100 μg/mL streptomycin and […] L-glutamine. MDCKII cells were newly thawed from frozen ampules every two months.
Stock solutions of water-insoluble glycosphingolipid inhibitors (100 mM) were prepared by dissolving each inhibitor into 100% ethanol as previously described (3). The inhibitor-ethanol solutions then were diluted 50× into 2 mM delipidated bovine serum albumin-phosphate buffered saline solution to make water-soluble glycosphingolipid inhibitor-bovine serum albumin complexes. The inhibitor-bovine serum album complexes were sterile-filtered and stored at −20° C. Prior to use, portions of the inhibitor-bovine serum albumin complexes were further diluted with Opti-F12 to make treatment solutions. Equal amounts of bovine serum albumin and ethanol were added into the control cultures. WT and MDR1-MDCKII cells (5×10^5) were seeded into 10-cm culture dishes containing 10 ml of Opti-F12 with 5% FBS. […]
Following inhibitor treatment, whole cellular lipids of wild type and MDR1-MDCKII cells were extracted as previously described in detail (10). Briefly, cells were washed with ice-cold phosphate buffered saline, fixed by methanol, and collected with rubber scraper. Chloroform was then added to yield a theoretical ratio of chloroform:methanol:water at 1:2:0.8 (v/v/v) to form a mono-phase. Cell debris and proteins were removed by centrifugation at 2200×g for 30 min. The supernatants were portioned by adding chloroform and 0.9% NaCl. The lower organic phases containing neutral glycosphingolipids lipids were washed with methanol and 0.9% NaCl, and subjected to base- and acid-hydrolysis (10). A portion of purified glycosphingolipids normalized to 100 nmol of total phospholipids was analyzed by high performance thin layer chromatography. The thin layer chromatography separations were processed twice. The plate pretreated with 1% sodium borate was first developed in a solvent system consisting of chloroform/methanol (98/2, v/v). After air drying, the plate was then developed in a solvent system containing chloroform/methanol/water (70/30/4, v/v/v). The levels of glucosylceramide were detected by charring with 8% cupric sulfate in 8% phosphoric acid, and quantified by densitometric scanning using ImageJ, NIH Image.

The term IC50 denotes the point on the concentration scale where inhibition reaches its midpoint.

Regarding `O=C(CC1Cc2ccccc2C1)N[C@H](CN1CCCC1)[C@H](O)c1ccc2c(c1)OCCO2` [Compound 3h, 2-(2,3-dihydro-1H-inden-2-yl)-N-((1R,2R)-1-(2,3-dihydrobenzo[b][1,4]dioxin-6-yl)-1-hydroxy-3-(pyrrolidin-1-yl)propan-2-yl)acetamide], in assay [1], the “change in brain GlcCer levels” value is “ten percent decrease”; the “fall in brain GlcCer levels” value was 17%; the “brain GlcCer content, short term dosing” value is “significant dose dependent decrease; also recorded: significantly lowered”. Besides, the IC50 in assay [2] (inhibition of GlcCer production in MDCKII cells stably expressing human MDR1, 24 h, read-out: MDR-MDCK IC50) came to 24.3 nM.

With `CCCCCCCC(=O)N[C@H](CN1CCCC1)[C@H](O)c1ccc2c(c1)OCCO2` [Compound 3a, N-((1R,2R)-1-(2,3-dihydrobenzo-[b][1,4]dioxin-6-yl)-1-hydroxy-3-(pyrrolidin-1-yl)propan-2-yl)octanamide, reference compound], in assay [1], the “change in brain GlcCer levels” value is recorded as “without changes”; the “fall in brain GlcCer levels” value is “without any changes”; the “liver and kidney GlcCer levels” value is on record as “significantly lowered”; the “brain GlcCer content, short term dosing” value is given as “failed to demonstrate any change”. Also, in assay [1] (listed as eliglustat), the “liver and kidney GlcCer levels” value is reported as “lowered”. Moreover, the “brain GlcCer content, short term dosing” value in assay [1] (listed as eliglustat tartrate) is “an effect not seen”. Moreover, the IC50 in assay [2] (MDR1-MDCKII cells, 24 h, read-out: IC50 for reduction in GlcCer levels, MDR1 expressing cells) came out at 31.7 nM. For the same compound, the MDR/WT in assay [2] (ratio of MDR1-MDCKII IC50 divided by WT-MDCKII IC50) amounted to 2.3.
